For this assay, the system named is recombinant NL-RLuc virus (HIV NL4-3 with Renilla Luciferase) in MT-2 cells. Kind of assay: Inhibition of HIV replication (NL-RLuc virus in MT-2 cells, luciferase readout). The class given is cell-based. From the text: Inhibition of HIV Replication:
A recombinant NL-RLuc proviral clone was constructed in which a section of the nef gene from NL4-3 was replaced with the Renilla Luciferase gene. This virus is fully infectious and can undergo multiple cycles of replication in cell culture. In addition, the luciferous reporter provides a simple and easy method for quantitating the extent of virus growth and consequently, the antiviral activity of test compounds. The plasmid pNLRLuc contains the proviral NL-Rluc DNA cloned into pUC18 at the PvuII site. The NL-RLuc virus was prepared by transfection of 293T cells with the plasmid pNLRLuc. Transfections were performed using the LipofectAMINE PLUS kit from Invitrogen (Carlsbad, Calif.) according to the manufacturer and the virus generated was titered in MT-2 cells. For susceptibility analyses, the titrated virus was used to infect MT-2 cells in the presence of compound, and after 5 days of incubation, cells were processed and quantitated for virus growth by the amount of expressed luciferase. Assay media was RPMI 1640 supplemented with 10% heat inactivated fetal bovine serum (FBS), 100 units/ml penicillin G/100 units/ml streptomycin, 10 mM HEPES buffer pH 7.55 and 2 mM L-glutamine. The results from at least 2 experiments were used to calculate the EC50 values. Luciferase was quantitated using the Dual Luciferase kit from Promega (Madison, Wis.). Susceptibility of viruses to compounds was determined by incubation in the presence of serial dilutions of the compound. The 50% effective concentration (EC50) was calculated by using the exponential form of the median effect equation where (Fa)=1/[1+(ED50/drug conc.)^m] (Johnson V A, Byington R T. Infectivity Assay. In Techniques in HIV Research. ed. Aldovini A, Walker B D. 71-76. New York: Stockton Press. 1990).

The mark [1] stands for this setting: NL-RLuc virus, MT-2 cells, 5 days of incubation, 10% FBS, luciferase, read-out: EC50.

Drawing on patent US9932353B2, “Imidazopyrimidine macrocycles as inhibitors of human immunodeficiency virus replication” (VIIV HEALTHCARE UK (NO. 5) LIMITED, priority 2014, dated 2018), this text covers EC50 for three compounds.

Where two headings read alike, the source gives them in different places.

Take “(2S)-2-(tert-butoxy)-2-[(22S/R)-17-fluoro-4,22,28-trimethyl-21,27-dioxa-1,5,7,34-tetraazahexacyclo[26.2.2.1^6,^9.1^10,^14.0^2,^7.0^15,^20]tetratriaconta-2,4,6(34),8,10(33),11,13,15(20),16,18-decaen-3-yl]acetic Acid [Example 3]”: the half-maximal effective concentration (EC50) under setting [1] was 77 nM.

As for `Cc1ccc2c(c1)-c1cccc(c1)-c1cn3c(c([C@H](OC(C)(C)C)C(=O)O)c(C)nc3n1)N1CCC(C)(CC1)OCCCC[C@H](C)O2` [Example 1, (2S)-2-(tert-Butoxy)-2-[(22S)-4,17,22,28-tetramethyl-21,27-dioxa-1,5,7,34-tetraazahexacyclo[26.2.2.1^6,^9.1^10,^14.0^2,^7.0^15,^20]tetratriaconta-2,4,6(34),8,10(33),11,13,15(20),16,18-decaen-3-yl]acetic Acid], the 50% effective concentration (EC50) (MT2, 120 h) was determined as 8 nM. For `Cc1nc2nc3cn2c(c1[C@H](OC(C)(C)C)C(=O)O)N1CCC(C)(CC1)OCCCCC(C)Oc1ccc(F)cc1-c1cccc-3c1` (stereo partly drawn) [Example 2, (2S)-2-(tert-butoxy)-2-[(22S/R)-17-fluoro-4,22,28-trimethyl-21,27-dioxa-1,5,7,34-tetraazahexacyclo[26.2.2.1^6,^9.1^10,^14.0^2,^7.0^15,^20]tetratriaconta-2,4,6(34),8,10(33),11,13,15(20),16,18-decaen-3-yl]acetic Acid], the half-maximal effective concentration (EC50) under setting [1] is 8 nM.
